Tests used:
[1] = biological target: T1, chitin synthase 1 of Candida albicans chs2 Δ chs 3 Δ (Candida albicans, UniProt P23316); test: In vitro enzyme assay for chitin synthase 1 of Candida albicans (enzyme 1); format: biochemical; settings: relative to polyoxin D (50% inhibitory activity = value 5)
T1 construct: Crude enzyme was prepared using the Candida albicans chs2 Δ chs 3 Δ mutant; endogenous in cells; host or cells: Candida albicans chs2Δ/chs2Δ chs3Δ/chs3Δ mutant; 130,000 x g membrane pellet
Outline: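 Crude membrane enzyme from the C. albicans chs2Δ chs3Δ strain was trypsin-activated for 15 min at 30 °C. Reaction: 32 mM Tris-HCl pH 7.5, 2 mM cobalt acetate, 1.1 mM UDP-[14C]GlcNAc, 90 min at 30 °C; TCA-insoluble radioactivity counted. Scored 1–8 by relative polyoxin D concentration (5 = equal).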

[2] = biological target: T2, chitin synthase 2 of Saccharomyces cerevisiae ECY38-38A(pAS6) (Saccharomyces cerevisiae, UniProt P14180); test: In vitro enzyme assay for chitin synthase 2 of Saccharomyces cerevisiae (enzyme 2); format: biochemical; settings: relative to polyoxin D (50% inhibitory activity = value 5)
T2 construct: made in house; host or cells: Saccharomyces cerevisiae ECY38-38A (chs1-23 chs2::LEU2 cal1/csd2) carrying plasmid pAS6, grown in galactose medium; 130,000 x g membrane pellet
Outline: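 Crude membrane chitin synthase 2 came from S. cerevisiae ECY38-38A(pAS6), expressing only CHS2, and was trypsin-activated (15 min, 30 °C) then trypsin-inhibited. The reaction ran in 32 mM Tris-HCl pH 7.5, 2 mM cobalt acetate, 1.1 mM UDP-[14C]-GlcNAc, 90 min at 30 °C. TCA-precipitated product was counted by scintillation; scores 1–8 reflect concentration relative to polyoxin D's 50% inhibition (score 5).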

[3] = test system: Cryptococcus neoformans ATCC 36556; test: In vitro antifungal activity (MIC), NCCLS method; format: cell-based; settings: RPMI 1640 medium, 72 hours
From the text: (§1) Candida albicans ATCC 10231, Candida lusitaniae ATCC 42720, Candida krusei ATCC 6258, Candida tropicalis ATCC 13803, Candida glabrata ATCC 48435, Candida parapsilosis ATCC 34136, Cryptococcus neoformans ATCC 36556, Aspergillus fumigatus ATCC 16424, Aspergillus flavus ATCC 64025, Aspergillus terreus ATCC 46941 and Mucor ramosissimus ATCC 90286 strains for the MIC (minimum inhibitory concentration) measurement were obtained from ATCC (American Type Culture Collection) in the U.S. The Candida albicans A207(clinical isolate) strain was used by isolating it from the patients.
(§2) The determination of MIC was performed according to the NCCLS (National Committee for Clinical Laboratory Standard) method. Each test sample solution was diluted two-fold and inoculated with a fungal suspension to reach a final inoculum size of 5×10^2 to 2.5×10^3 cell/mL. The Cryptococcus neoformans strain was cultured in the RPMI 1640 medium for 72 hours. Other strains were cultured for 48 hours.

[4] = test system: Candida tropicalis ATCC 13803; test: In vitro antifungal activity (MIC), NCCLS method; format: cell-based; settings: 48 hours
From the text: as §1, §2

[5] = test system: Candida albicans ATCC 10231; test: In vitro antifungal activity (MIC), NCCLS method; format: cell-based; settings: 48 hours
From the text: as §1, §2

[6] = test system: Aspergillus terreus ATCC 46941; test: In vitro antifungal activity (MIC), NCCLS method; format: cell-based; settings: 48 hours
From the text: as §1, §2

[7] = test system: Mucor ramosissimus ATCC 90286; test: In vitro antifungal activity (MIC), NCCLS method; format: cell-based; settings: 48 hours
From the text: as §1, §2

[8] = test system: Candida glabrata ATCC 48435; test: In vitro antifungal activity (MIC), NCCLS method; format: cell-based; settings: Candida glabrata ATCC 48435; 48 hours
From the text: as §1, §2

[9] = test system: Candida albicans A207 (clinical isolate); test: In vitro antifungal activity (MIC), NCCLS method; format: cell-based; settings: 48 hours
From the text: as §1, §2

[10] = test system: Candida parapsilosis ATCC 34136; test: In vitro antifungal activity (MIC), NCCLS method; format: cell-based; settings: Candida parapsilosis ATCC 34136; 48 hours
From the text: as §1, §2

[11] = test system: Aspergillus fumigatus ATCC 16424; test: In vitro antifungal activity (MIC), NCCLS method; format: cell-based; settings: 48 hours
From the text: as §1, §2

[12] = test system: Candida krusei ATCC 6258; test: In vitro antifungal activity (MIC), NCCLS method; format: cell-based; settings: 48 hours
From the text: as §1, §2

[13] = test system: Aspergillus flavus ATCC 64025; test: In vitro antifungal activity (MIC), NCCLS method; format: cell-based; settings: 48 hours
From the text: as §1, §2

[14] = test system: Candida lusitaniae ATCC 42720; test: In vitro antifungal activity (MIC), NCCLS method; format: cell-based; settings: 48 hours
From the text: as §1, §2

T1 sequence (P23316 whole entry, stated change not applied): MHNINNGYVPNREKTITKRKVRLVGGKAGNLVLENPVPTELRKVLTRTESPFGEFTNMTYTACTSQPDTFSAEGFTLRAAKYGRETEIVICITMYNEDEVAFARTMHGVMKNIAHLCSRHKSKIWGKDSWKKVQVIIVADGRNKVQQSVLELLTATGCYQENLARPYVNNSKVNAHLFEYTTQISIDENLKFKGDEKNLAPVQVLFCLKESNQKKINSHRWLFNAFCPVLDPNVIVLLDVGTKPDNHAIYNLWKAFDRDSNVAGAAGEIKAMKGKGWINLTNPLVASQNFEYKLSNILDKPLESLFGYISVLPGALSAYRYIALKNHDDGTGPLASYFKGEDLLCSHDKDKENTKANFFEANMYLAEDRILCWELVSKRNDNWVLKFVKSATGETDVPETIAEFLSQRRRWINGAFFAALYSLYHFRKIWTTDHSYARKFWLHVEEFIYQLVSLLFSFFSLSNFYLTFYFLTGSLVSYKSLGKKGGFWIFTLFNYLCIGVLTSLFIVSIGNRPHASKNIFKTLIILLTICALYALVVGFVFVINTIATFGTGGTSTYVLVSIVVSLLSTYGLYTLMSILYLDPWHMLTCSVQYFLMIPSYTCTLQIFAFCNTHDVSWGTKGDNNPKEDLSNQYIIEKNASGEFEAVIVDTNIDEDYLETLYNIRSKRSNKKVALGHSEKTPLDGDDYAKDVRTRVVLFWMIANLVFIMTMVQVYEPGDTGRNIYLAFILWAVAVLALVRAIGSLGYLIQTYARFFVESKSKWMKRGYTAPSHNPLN
T2 sequence (P14180 whole entry): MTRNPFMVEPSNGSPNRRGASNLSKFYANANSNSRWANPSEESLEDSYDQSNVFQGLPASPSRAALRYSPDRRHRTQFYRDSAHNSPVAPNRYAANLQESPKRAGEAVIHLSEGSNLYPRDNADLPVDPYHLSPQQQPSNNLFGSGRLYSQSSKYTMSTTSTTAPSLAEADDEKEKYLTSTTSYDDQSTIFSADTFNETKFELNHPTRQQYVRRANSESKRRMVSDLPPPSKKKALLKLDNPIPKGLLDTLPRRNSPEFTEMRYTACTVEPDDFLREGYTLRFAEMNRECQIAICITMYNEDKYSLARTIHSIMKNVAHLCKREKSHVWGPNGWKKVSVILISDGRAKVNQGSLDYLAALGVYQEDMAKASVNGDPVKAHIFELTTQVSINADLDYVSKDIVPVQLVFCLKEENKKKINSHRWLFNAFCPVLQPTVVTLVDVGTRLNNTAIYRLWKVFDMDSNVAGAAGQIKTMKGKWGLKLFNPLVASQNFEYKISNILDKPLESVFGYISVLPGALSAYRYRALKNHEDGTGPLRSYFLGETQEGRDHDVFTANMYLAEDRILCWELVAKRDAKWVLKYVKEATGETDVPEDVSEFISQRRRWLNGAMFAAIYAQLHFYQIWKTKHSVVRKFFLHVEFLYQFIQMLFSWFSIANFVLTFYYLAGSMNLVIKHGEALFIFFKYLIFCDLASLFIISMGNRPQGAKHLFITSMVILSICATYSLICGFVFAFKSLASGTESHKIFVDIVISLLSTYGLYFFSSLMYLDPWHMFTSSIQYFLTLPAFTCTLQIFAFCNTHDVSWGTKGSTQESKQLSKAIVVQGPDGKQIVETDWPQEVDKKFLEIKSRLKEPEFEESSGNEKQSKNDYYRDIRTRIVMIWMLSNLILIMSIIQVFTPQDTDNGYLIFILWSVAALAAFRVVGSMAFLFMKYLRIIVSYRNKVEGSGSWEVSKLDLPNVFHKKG

Molecule	Relative activity Enzyme 1 [1]	Relative activity Enzyme 2 [2]	MIC (minimum inhibitory concentration) [3] [µg/mL]	MIC (minimum inhibitory concentration) [4] [µg/mL]	MIC (minimum inhibitory concentration) [5] [µg/mL]	MIC (minimum inhibitory concentration) [6] [µg/mL]	MIC (minimum inhibitory concentration) [7] [µg/mL]	MIC (minimum inhibitory concentration) [8] [µg/mL]	MIC (minimum inhibitory concentration) [9] [µg/mL]	MIC (minimum inhibitory concentration) [10] [µg/mL]	MIC (minimum inhibitory concentration) [11] [µg/mL]	MIC (minimum inhibitory concentration) [12] [µg/mL]	MIC (minimum inhibitory concentration) [13] [µg/mL]	MIC (minimum inhibitory concentration) [14] [µg/mL]
13-(4-isopropylbenzyl)-9-O-crotylberberrubine chloride [Compound No. 56]	2 (Compounds having the inhibitory activity at 2-fold, 4-fold, 8-fold and 16-fold higher concentrations than that of polyoxin D were given the values of 4, 3, 2 and 1, respectively)	6 (compounds having the inhibitory activity at ½, ¼ and ⅛ lower concentrations than that of polyoxin D were given the values of 6, 7 and 8, respectively)	1	0.5	0.5	4	4	4	0.5	4	2	1	8	1
COc1ccc2c(Cc3ccc(C(C)C)cc3)c3[n+](cc2c1OCCCCCCCl)CCc1cc2c(cc1-3)OCO2.[I-] [Compound No. 22, 13-(4-Isopropylbenzyl)-9-O-(6-chlorohexyl)berberrubine iodide]	2 (Compounds having the inhibitory activity at 2-fold, 4-fold, 8-fold and 16-fold higher concentrations than that of polyoxin D were given the values of 4, 3, 2 and 1, respectively)	5 (A compound having the same inhibitory activity as that of polyoxin D at the same concentration was given the value 5)	1	0.5	0.5	8	4	2	0.5	2	2	1	8	2
13-(4-Isopropylbenzyl)-9-O-allylberberrubine iodide [Compound No. 23]	2 (Compounds having the inhibitory activity at 2-fold, 4-fold, 8-fold and 16-fold higher concentrations than that of polyoxin D were given the values of 4, 3, 2 and 1, respectively)	5 (A compound having the same inhibitory activity as that of polyoxin D at the same concentration was given the value 5)	2	1	1	8	4	8	1	4	8	2	8	2
13-(4-tert-Butylbenzyl)-9-O-hexylberberrubine chloride [Compound No. 41]	4 (Compounds having the inhibitory activity at 2-fold, 4-fold, 8-fold and 16-fold higher concentrations than that of polyoxin D were given the values of 4, 3, 2 and 1, respectively)	6 (compounds having the inhibitory activity at ½, ¼ and ⅛ lower concentrations than that of polyoxin D were given the values of 6, 7 and 8, respectively)	0.5	0.125	0.25	8	4	2	0.25	2	2	1	8	0.5

Source: patent publication US7915276B2, “Berberrubine derivatives having antifungal activities” (priority 2006, dated 2011)
